Where two headings read alike, the source gives them in different places.
How the values were obtained:
[1] = biological target: Neisseria gonorrhoeae FabI (Neisseria gonorrhoeae, UniProt A0ACH0F547); assay: Neisseria gonorrhoeae FabI inhibition assay (NADH consumption)
[2] = system: Neisseria gonorrhoeae; assay: MIC50 by CLSI agar dilution on a panel of N. gonorrhoeae clinical isolates; format: cell-based; details: Neisseria gonorrhoeae
Procedure: MIC50: MICs were determined in accordance with the appropriate Clinical and Laboratory Standards Institute (CLSI) methodology by the agar dilution susceptbility testing method in GC agar base.

[3] = agar dilution, GC agar base, minimum of 15 clinical isolates, read-out: MIC50

Sequence of Neisseria gonorrhoeae FabI (A0ACH0F547 1-261): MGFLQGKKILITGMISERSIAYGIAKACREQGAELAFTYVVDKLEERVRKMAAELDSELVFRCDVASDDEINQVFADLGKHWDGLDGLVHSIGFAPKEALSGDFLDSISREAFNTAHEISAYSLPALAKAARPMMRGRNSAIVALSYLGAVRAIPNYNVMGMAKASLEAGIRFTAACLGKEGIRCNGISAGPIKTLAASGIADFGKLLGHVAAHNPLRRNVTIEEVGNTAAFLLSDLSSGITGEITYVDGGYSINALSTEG

Row | SMILES | IC50 [1] [nM] | MIC50 [2, 3] [µg/mL] | MIC50 [2] [µg/mL]
1 | O=C1CCNc2cc(/C=C/C(=O)N3C[C@H]4CC(c5ccc(Oc6ncccn6)cc5)=C[C@H]4C3)cnc2N1 [Compound 60, 8-((E)-3-Oxo-3-((3aS,6aR)-5-(4-(pyrimidin-2-yloxy)phenyl)-3,3a,4,6a-tetrahydrocyclopenta[c]pyrrol-2(1H)-yl)prop-1-en-1-yl)-1,2,3,5-tetrahydro-4H-pyrido[2,3-b][1,4]diazepin-4-one] | < 10 | < 1 | –
2 | Cc1oc2c(Oc3ccc4c(c3)CCN4)cccc2c1CN(C)C(=O)/C=C/c1cnc2c(c1)CCCC(=O)N2 [Compound 180, (E)-N-((7-(indolin-5-yloxy)-2-methylbenzofuran-3-yl)methyl)-N-methyl-3-(8-oxo-6,7,8,9-tetrahydro-5H-pyrido[2,3-b]azepin-3-yl)acrylamide] | < 10 | < 1 | –
3 | Cc1c(CN(C)C(=O)/C=C/c2cnc3c(c2)CCCC(=O)N3)oc2cccc(N)c12 [Compound 5, (E)-N-((4-amino-3-methylbenzofuran-2-yl)methyl)-N-methyl-3-(8-oxo-6,7,8,9-tetrahydro-5H-pyrido[2,3-b]azepin-3-yl)acrylamide] | < 10 | < 1 | –
4 | Cc1c(CN(C)C(=O)/C=C/c2cnc3c(c2)N[C@](C)(CO)C(=O)N3)oc2ccccc12 (single isomer, unassigned) [Compound 209] | < 10 | < 1 | –
5 | Cc1oc2c(N)cccc2c1CN(C)C(=O)/C=C/c1cnc2c(c1)NC[C@@](C)(O)C(=O)N2 [Compound 167, (R,E)-N-((7-amino-2-methylbenzofuran-3-yl)methyl)-3-(3-hydroxy-3-methyl-4-oxo-2,3,4,5-tetrahydro-1H-pyrido[2,3-b][1,4]diazepin-8-yl)-N-methylacrylamide] | < 10 | < 1 | –
6 | Cc1c(CN(C)C(=O)/C=C/c2cnc3c(c2)NC[C@@H](O)C(=O)N3)oc2ccccc12 [Compound 229, (R,E)-3-(3-Hydroxy-4-oxo-2,3,4,5-tetrahydro-1H-pyrido[2,3-b][1,4]diazepin-8-yl)-N-methyl-N-((3-methylbenzofuran-2-yl)methyl)acrylamide] | < 10 | < 1 | –
7 | Cc1oc2c(Oc3cncs3)cccc2c1CN(C)C(=O)/C=C/c1cnc2c(c1)NCCC(=O)N2 [Compound 101, (E)-N-Methyl-N-((2-methyl-7-(thiazol-5-yloxy)benzofuran-3-yl)methyl)-3-(4-oxo-2,3,4,5-tetrahydro-1H-pyrido[2,3-b][1,4]diazepin-8-yl)acrylamide] | < 10 | < 1 | –
8 | Cc1oc2ccccc2c1CN(C)C(=O)/C=C/c1cnc2c(c1)NC1(CCOCC1)C(=O)N2 [Compound 64, (E)-N-Methyl-N-((2-methylbenzofuran-3-yl)methyl)-3-(3′-oxo-2,3,3′,4′,5,6-hexahydro-1′H-spiro[pyran-4,2′-pyrido[2,3-b]pyrazin]-7′-yl)acrylamide] | < 10 | < 1 | –
9 | CCC1(O)Cc2cc(/C=C/C(=O)N(C)Cc3oc4ccccc4c3C)cnc2NC1=O (centres unmarked) [Compound 252, (E)-3-(6-ethyl-6-hydroxy-7-oxo-5,6,7,8-tetrahydro-1,8-naphthyridin-3-yl)-N-methyl-N-((3-methylbenzofuran-2-yl)methyl)acrylamide] | < 10 | < 1 | –
10 | N#Cc1ccc(Oc2ccc(C3=C[C@@H]4CN(C(=O)/C=C/c5cnc6c(c5)NCCC(=O)N6)C[C@@H]4C3)cc2)cc1 (stereo in doubt) [Compound 198, 4-(4-((3aR,6aS)-2-((E)-3-(4-oxo-2,3,4,5-tetrahydro-1H-pyrido[2,3-b][1,4]diazepin-8-yl)acryloyl)-1,2,3,3a,4,6a-hexahydrocyclopenta[c]pyrrol-5-yl)phenoxy)benzonitrile] | < 10 | < 1 | –
11 | Cc1c(CN(C)C(=O)/C=C/c2cnc3c(c2)C=C[C@@](C)(O)C(=O)N3)oc2ccccc12 (single isomer, unassigned) [Compound 260] | < 10 | < 1 | –
12 | Cc1c(CN(C)C(=O)/C=C/c2cnc3c(c2)C[C@@](C)(O)C(=O)N3)oc2ccccc12 (single isomer, unassigned) [Compound 247] | < 10 | – | < 1
13 | Cc1c(CN(C)C(=O)/C=C/c2cnc3c(c2)NC[C@@](C)(CO)C(=O)N3)oc2ccccc12 [Compound 32, (S,E)-3-(3-(hydroxymethyl)-3-methyl-4-oxo-2,3,4,5-tetrahydro-1H-pyrido[2,3-b][1,4]diazepin-8-yl)-N-methyl-N-((3-methylbenzofuran-2-yl)methyl)acrylamide] | < 10 | < 1 | –
14 | Cc1c(CN(C)C(=O)/C=C/c2cnc3c(c2)NC[C@](C)(CO)C(=O)N3)oc2ccccc12 [Compound 33, (R,E)-3-(3-(hydroxymethyl)-3-methyl-4-oxo-2,3,4,5-tetrahydro-1H-pyrido[2,3-b][1,4]diazepin-8-yl)-N-methyl-N-((3-methylbenzofuran-2-yl)methyl)acrylamide] | < 10 | < 1 | –
15 | Cc1oc2ccccc2c1CN(C)C(=O)/C=C/c1cnc2c(c1)NC[C@@](C)(CO)C(=O)N2 (single isomer, unassigned) [Compound 40] | < 10 | < 1 | –
16 | Cc1c(CN(C)C(=O)/C=C/c2cnc3c(c2)NC[C@H](O)C(=O)N3)oc2ccccc12 [Compound 230, (S,E)-3-(3-Hydroxy-4-oxo-2,3,4,5-tetrahydro-1H-pyrido[2,3-b][1,4]diazepin-8-yl)-N-methyl-N-((3-methylbenzofuran-2-yl)methyl)acrylamide] | < 10 | < 1 | –
17 | Cc1oc2c(Oc3ccc(C#N)cc3)cccc2c1CN(C)C(=O)/C=C/c1cnc2c(c1)NC[C@@](C)(O)C(=O)N2 [Compound 152, (R,E)-N-((7-(4-cyanophenoxy)-2-methylbenzofuran-3-yl)methyl)-3-(3-hydroxy-3-methyl-4-oxo-2,3,4,5-tetrahydro-1H-pyrido[2,3-b][1,4]diazepin-8-yl)-N-methylacrylamide] | < 10 | – | < 1
18 | Cc1oc2ccccc2c1CN(C)C(=O)/C=C/c1cnc2c(c1)NCCC(=O)N2 [Compound 170, (E)-N-Methyl-N-((2-methylbenzofuran-3-yl)methyl)-3-(4-oxo-2,3,4,5-tetrahydro-1H-pyrido[2,3-b][1,4]diazepin-8-yl)acrylamide] | < 10 | < 1 | –
19 | Cc1oc2c(N)cccc2c1CN(C)C(=O)/C=C/c1cnc2c(c1)NCC(C)(C)C(=O)N2 [Compound 109, (E)-N-((7-Amino-2-methylbenzofuran-3-yl)methyl)-3-(3,3-dimethyl-4-oxo-2,3,4,5-tetrahydro-1H-pyrido[2,3-b][1,4]diazepin-8-yl)-N-methylacrylamide] | < 10 | < 1 | –
20 | Cc1oc2ccccc2c1CN(C)C(=O)/C=C/c1cnc2c(c1)N[C@H](C)[C@H](O)C(=O)N2 (single isomer, unassigned) [Compound 151] | < 10 | < 1 | –
21 | Cc1c(CN(C)C(=O)/C=C/c2cnc3c(c2)N[C@@](C)(CO)C(=O)N3)oc2ccccc12 (single isomer, unassigned) [Compound 208] | < 10 | < 1 | –
22 | Cc1c(CN(C)C(=O)/C=C/c2cnc3c(c2)N[C@H](C)CC(=O)N3)oc2ccccc12 [Compound 214, (E)-N-methyl-N-[(3-methylbenzofuran-2-yl)methyl]-3-[(2R)-2-methyl-4-oxo-1,2,3,5-tetrahydropyrido[2,3-b][1,4]diazepin-8-yl]prop-2-enamide] | < 10 | < 1 | –

— patent publication US12545672B2, “Antibiotic compounds, methods of manufacturing the same, pharmaceutical compositions containing the same and uses thereof” (Debiopharm International S.A., priority 2018, dated 2026)
